Values belong to the compound of their own block, whether it stands above or below them.
Columns and labels:
[1] = biological target: 5-hydroxytryptamine receptor 4 (Rattus norvegicus, UniProt Q62758); experiment: Agonist activity against serotonin 5-HT4 receptor in rat tunica muscularis mucosae assay; format: functional
[2] = biological target: Substance-P receptor (Homo sapiens, UniProt P25103); experiment: Compound was tested for inhibitory activity against Tachykinin receptor 1
[3] = biological target: T1, 5-hydroxytryptamine receptor 3A (Homo sapiens, UniProt P46098); experiment: (§1) Compound was tested for its binding affinity for the 5-hydroxytryptamine 3 receptor
T1 sequence (P46098 whole entry): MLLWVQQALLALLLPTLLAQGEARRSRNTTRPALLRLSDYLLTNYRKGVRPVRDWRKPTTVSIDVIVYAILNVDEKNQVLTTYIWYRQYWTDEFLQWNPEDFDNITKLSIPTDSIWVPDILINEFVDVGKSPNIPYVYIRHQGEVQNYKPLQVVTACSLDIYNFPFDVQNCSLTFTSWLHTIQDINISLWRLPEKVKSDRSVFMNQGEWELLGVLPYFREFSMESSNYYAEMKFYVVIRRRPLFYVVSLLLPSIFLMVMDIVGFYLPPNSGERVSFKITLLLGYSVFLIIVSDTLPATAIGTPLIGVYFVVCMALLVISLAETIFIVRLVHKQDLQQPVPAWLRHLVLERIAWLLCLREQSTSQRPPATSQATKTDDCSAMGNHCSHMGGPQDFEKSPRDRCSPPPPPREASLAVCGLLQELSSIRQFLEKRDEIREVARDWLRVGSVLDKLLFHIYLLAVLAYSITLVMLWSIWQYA

[4] = biological target: T2, D(2) dopamine receptor (Homo sapiens, UniProt P14416); experiment: Compound was tested for inhibitory activity against Dopamine D2 receptor
T2 sequence (P14416 whole entry): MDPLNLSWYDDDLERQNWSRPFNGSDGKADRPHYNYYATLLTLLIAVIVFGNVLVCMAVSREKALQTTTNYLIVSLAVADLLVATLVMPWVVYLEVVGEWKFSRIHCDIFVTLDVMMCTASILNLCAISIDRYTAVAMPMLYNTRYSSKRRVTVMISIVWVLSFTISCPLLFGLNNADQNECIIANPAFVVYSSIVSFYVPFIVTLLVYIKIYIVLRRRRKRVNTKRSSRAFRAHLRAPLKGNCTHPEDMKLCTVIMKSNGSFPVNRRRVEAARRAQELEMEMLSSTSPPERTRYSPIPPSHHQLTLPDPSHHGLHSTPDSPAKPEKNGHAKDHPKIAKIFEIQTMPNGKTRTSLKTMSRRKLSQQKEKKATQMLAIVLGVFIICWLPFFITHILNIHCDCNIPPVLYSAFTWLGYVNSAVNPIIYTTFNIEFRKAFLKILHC

[5] = biological target: Muscarinic acetylcholine receptor M3 (Rattus norvegicus, UniProt P08483); experiment: Compound was tested for inhibitory activity against Muscarinic acetylcholine receptor
Chain of Muscarinic acetylcholine receptor M3 (P08483 whole entry): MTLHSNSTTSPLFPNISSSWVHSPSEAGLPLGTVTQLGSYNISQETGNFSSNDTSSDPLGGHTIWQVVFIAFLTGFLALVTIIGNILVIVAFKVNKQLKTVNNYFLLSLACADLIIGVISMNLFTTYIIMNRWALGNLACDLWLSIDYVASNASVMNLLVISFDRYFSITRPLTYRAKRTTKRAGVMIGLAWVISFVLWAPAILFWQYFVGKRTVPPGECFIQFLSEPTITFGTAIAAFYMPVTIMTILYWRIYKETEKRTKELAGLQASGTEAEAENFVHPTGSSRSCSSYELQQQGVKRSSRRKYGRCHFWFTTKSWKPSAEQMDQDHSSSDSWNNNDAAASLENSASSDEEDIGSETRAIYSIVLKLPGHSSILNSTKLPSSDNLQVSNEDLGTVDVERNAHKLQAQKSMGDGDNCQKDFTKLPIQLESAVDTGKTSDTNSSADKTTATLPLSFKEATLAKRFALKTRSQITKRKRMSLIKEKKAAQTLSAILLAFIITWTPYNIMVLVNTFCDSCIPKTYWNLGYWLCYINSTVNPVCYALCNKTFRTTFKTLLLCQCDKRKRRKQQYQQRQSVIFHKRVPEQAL

[6] = biological target: Serotonin 2 (5-HT2) receptor (Homo sapiens, UniProt P41595+P28223+P28335); experiment: Compound was tested for inhibitory activity against 5-hydroxytryptamine 2 receptor; format: protein assay
[7] = biological target: D(1A) dopamine receptor (Homo sapiens, UniProt P21728); experiment: Compound was tested for inhibitory activity against Dopamine D1 receptor
Chain of D(1A) dopamine receptor (P21728 whole entry): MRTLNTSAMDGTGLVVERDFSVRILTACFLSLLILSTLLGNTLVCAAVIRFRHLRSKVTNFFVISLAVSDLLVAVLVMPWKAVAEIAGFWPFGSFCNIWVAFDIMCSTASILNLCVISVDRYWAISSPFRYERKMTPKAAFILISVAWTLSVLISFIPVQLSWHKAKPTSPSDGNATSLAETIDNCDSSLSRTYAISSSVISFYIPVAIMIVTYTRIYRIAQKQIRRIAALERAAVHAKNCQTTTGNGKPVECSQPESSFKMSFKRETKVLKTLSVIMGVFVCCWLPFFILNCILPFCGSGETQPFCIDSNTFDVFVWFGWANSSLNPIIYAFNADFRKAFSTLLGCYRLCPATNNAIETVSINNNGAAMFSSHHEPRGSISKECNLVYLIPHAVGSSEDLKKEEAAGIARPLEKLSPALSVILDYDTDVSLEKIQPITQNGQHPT

[8] = biological target: T3, Alpha-1B adrenergic receptor (Homo sapiens, UniProt P35368); experiment: Compound was tested for inhibitory activity against adrenergic alpha-1 receptor
T3 sequence (P35368 whole entry): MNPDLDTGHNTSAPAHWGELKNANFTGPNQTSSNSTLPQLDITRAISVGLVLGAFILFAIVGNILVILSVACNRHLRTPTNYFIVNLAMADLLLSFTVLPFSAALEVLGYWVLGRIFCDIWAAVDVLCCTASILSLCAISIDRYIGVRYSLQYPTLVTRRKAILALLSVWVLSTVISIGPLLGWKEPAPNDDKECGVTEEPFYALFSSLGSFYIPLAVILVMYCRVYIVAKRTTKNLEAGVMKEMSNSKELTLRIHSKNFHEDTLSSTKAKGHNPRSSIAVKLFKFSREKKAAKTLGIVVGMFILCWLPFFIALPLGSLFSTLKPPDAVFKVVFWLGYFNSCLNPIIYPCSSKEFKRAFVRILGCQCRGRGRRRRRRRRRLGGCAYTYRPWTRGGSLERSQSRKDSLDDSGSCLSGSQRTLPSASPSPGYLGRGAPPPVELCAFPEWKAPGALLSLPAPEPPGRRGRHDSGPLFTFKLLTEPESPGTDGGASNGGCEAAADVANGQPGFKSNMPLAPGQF

[9] = Compound was tested for inhibitory activity against 5-hydroxytryptamine 1 receptor
[10] = biological target: Adrenergic receptor beta (Homo sapiens, UniProt P08588+P07550+P13945); experiment: Compound was tested for inhibitory activity against Beta adrenergic receptor; format: protein assay
[11] = biological target: T4, Alpha-2A adrenergic receptor (Rattus norvegicus, UniProt P22909); experiment: Compound was tested for inhibitory activity against adrenergic alpha-2 receptor
T4 sequence (P22909 whole entry): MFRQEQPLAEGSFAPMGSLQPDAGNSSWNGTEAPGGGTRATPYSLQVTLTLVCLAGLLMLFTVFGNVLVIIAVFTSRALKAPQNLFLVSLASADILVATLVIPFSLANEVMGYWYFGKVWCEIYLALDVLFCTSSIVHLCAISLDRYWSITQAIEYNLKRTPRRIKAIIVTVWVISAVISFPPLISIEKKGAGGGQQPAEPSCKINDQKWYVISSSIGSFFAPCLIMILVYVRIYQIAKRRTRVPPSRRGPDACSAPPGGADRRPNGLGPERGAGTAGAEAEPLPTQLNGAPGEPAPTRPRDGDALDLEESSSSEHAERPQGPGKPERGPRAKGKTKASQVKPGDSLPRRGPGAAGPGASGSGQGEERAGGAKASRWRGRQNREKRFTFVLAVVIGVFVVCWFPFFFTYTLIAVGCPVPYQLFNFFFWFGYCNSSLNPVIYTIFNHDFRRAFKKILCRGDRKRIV

[12] = biological target: T5, Serotonin 3 (5-HT3) receptor (Rattus norvegicus, UniProt P35563+Q9JJ16); experiment: as §1; format: protein-complex assay
T5 sequence (P35563 whole entry): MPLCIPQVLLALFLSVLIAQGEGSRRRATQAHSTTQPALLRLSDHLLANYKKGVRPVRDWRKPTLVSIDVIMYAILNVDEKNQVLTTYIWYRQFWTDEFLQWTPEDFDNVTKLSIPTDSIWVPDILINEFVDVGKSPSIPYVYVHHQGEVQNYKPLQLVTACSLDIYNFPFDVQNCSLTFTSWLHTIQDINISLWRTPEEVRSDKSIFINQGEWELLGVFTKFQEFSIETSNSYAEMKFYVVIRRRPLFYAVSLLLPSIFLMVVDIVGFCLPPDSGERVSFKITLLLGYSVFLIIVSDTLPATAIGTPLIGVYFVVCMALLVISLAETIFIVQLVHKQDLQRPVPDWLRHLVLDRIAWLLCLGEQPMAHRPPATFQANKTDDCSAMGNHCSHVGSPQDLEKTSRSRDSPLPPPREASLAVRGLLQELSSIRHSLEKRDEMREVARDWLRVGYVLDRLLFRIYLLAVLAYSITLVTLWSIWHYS
T5 sequence (Q9JJ16 whole entry): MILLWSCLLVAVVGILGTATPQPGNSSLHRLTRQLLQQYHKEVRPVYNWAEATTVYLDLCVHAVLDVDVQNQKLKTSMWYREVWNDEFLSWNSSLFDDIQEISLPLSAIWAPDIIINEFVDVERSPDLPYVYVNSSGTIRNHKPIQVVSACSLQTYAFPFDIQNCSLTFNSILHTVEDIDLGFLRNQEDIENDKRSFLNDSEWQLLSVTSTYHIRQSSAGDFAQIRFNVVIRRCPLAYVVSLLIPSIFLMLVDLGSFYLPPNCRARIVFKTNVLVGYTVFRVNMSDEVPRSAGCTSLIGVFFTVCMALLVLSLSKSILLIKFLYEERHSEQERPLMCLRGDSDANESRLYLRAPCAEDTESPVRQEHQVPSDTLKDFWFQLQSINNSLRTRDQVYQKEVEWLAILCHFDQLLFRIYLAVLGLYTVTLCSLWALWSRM

[13] = tested on: Mus musculus; experiment: Compound was tested for inhibition of serotonin 5-HT3 receptor mediated bradycardia in Bezold-Jarisch reflex model in mice at 1 mg/kg after intraperitoneal administration; format: functional; details: ip
[14] = biological target: T2, D(2) dopamine receptor; experiment: Compound was selective with respect to binding at the Dopamine receptor D2

Chain of 5-hydroxytryptamine receptor 4 (Q62758 whole entry): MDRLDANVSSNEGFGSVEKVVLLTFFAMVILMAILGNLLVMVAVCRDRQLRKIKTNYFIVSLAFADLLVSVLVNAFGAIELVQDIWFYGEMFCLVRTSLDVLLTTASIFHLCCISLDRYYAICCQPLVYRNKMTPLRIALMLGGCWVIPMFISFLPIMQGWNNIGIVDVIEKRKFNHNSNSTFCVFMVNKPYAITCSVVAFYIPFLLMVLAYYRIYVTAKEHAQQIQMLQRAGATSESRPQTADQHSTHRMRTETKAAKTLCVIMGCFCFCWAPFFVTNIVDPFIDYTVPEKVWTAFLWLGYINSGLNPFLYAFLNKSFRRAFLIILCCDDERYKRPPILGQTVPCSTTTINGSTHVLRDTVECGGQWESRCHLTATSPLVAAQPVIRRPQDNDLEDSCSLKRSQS
Chain of Substance-P receptor (P25103 whole entry): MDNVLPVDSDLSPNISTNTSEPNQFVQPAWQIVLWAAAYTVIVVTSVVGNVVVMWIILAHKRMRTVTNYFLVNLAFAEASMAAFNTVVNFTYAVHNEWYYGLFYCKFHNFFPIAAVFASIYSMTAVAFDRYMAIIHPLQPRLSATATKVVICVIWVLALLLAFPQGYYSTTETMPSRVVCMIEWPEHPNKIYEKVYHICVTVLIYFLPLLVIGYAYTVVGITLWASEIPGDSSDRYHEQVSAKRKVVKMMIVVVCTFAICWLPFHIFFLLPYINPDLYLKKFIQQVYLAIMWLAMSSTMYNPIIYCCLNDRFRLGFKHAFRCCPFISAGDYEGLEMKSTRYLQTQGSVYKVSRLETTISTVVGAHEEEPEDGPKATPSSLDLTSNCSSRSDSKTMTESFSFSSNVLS

- EC50 [1]: > 10 µM
Structure (SMILES): COc1cc(NC(C)=O)c(Cl)cc1C(=O)NC1C2CC3CC1CN3C2 (configuration not stated)

- IC50 [2]: > 10 µM
- Ki [3]: 0.0012 µM
- IC50 [4]: > 10 µM
- IC50 [5]: > 10 µM
- EC50 [1]: 0.051 µM
- IC50 [6]: > 10 µM
- IC50 [7]: > 10 µM
- IC50 [8]: > 10 µM
- IC50 [9]: > 10 µM
- IC50 [10]: > 10 µM
- IC50 [11]: > 10 µM
Structure (SMILES): COc1cc(N)c(Cl)cc1C(=O)NC1C2CC3CN(C2)CC31.Cl (configuration not stated)

- EC50 [1]: 1.66 µM
Structure (SMILES): COc1cc(N)c(Cl)cc1C(=O)NCCC12CC3CN(CC3C1)C2

- Ki [12]: 0.005 µM
- IC50 [14]: > 10 µM
Structure (SMILES): COc1cc(N)c(Cl)cc1C(=O)NCC12CC3CN(CC3C1)C2
- inhibition in vivo at 1 mg/kg [13]: 70%

- EC50 [1]: > 10 µM
Structure (SMILES): COc1cc(NC(C)=O)c(Cl)cc1C(=O)NCC1C2CC3CC1CN3C2 (configuration not stated)
